{"source": "patent US20240228500A1", "about": "“THERAPEUTIC CONJUGATES” (TOTUS MEDICINES INC., priority 2021, published 2024)"}
{"tested_on": "NanoLuc fused to the biological target", "test": "NanoBRET binding assay of ARCS in transfected HEK293 cells with washout", "set-up": "species or system human", "settings": "HEK293 cells transiently transfected with NanoLuc fusion DNA, compound incubated overnight, cells washed 5x in PBS, tracer added", "protocol": "Human embryonic kidney 293-H (HEK 293, Gibco 293-H, #11631017) cell lines were maintained in Dulbecco's Modified Eagle Medium, high glucose, pyruvate (DMEM, Gibco, #11995065) supplemented with 10% fetal bovine serum (FBS, Gibco, #10082147) and 1× penicillin-streptomycin (100× solution, Gibco, #15140148) at 37° C. and 5% CO2 in a water-saturated incubator. Cells were trypsinized using 0.05% or 0.25% Trypsin-EDTA solution (Trypsin-EDTA, phenol red, Gibco, #25200056 (0.25%) or #25300054). Opti-MEM media supplemented with 10% fetal bovine serum (Opti-MEM I reduced serum media, no phenol red, Gibco, #11058021) was used for culturing cells overnight for NanoBRET readout experiments.\nHEK293 cells were then cultivated appropriately prior to assay. The medium from cell flask was removed via aspiration, washed 1× with PBS followed by aspiration, trypsinized, and cells were allowed to dissociate from the flask. Trypsin is neutralized using growth medium and cells were pelleted via centrifugation at 200×g for 5 minutes. The medium was aspirated and the cells were resuspended into a single cell suspension using Opti-MEM I supplemented with 10% FBS. The cell density was adjusted to 2×10^5/mL in Opti-MEM I supplemented with 10% FBS in a sterile, conical tube. The cells were transfected and aliquoted directly in a 96-well plate for the NanoBRET assay the next day, and therefore, the cells were cultured overnight in Opti-MEM. The cells were also transfected in bulk and dispensed into a 96-well plate to allow cells to adhere to the plate overnight, thereby enabling washout studies.\nThe lipid:DNA complexes were then prepared as follows: A 10 μg/mL solution of DNA was prepared in Opti-MEM without serum. This solution contains the following ratios of carrier DNA and DNA encoding NanoLuc fused to the biological target. Serial dilution steps may be warranted to accurately dilute the NanoLuc fusion DNA. Added, in order, were the following reagents to a sterile polystyrene test tube: 1 mL of Opti-MEM without phenol red; 9.0 μg/mL of carrier DNA; 1.0 μg/mL of NanoLuc fusion DNA (for some targets, the amount is less). The reagents were mixed thoroughly.\n[…] was added into each mL of DNA mixture to form lipid:DNA complex. […] It was mixed by pipetting up and down 5-10 times and incubated at room temperature for 20 minutes to allow complexes to form. 1 part (e.g. 1 mL) of lipid:DNA complex was mixed with 20 parts (e.g. 20 mL) of HEK293 cells in suspension at 2×10^5/mL and mixed gently by pipetting up and down 5 times in a sterile, conical tube. Larger or smaller bulk transfections were scaled accordingly, using this ratio. 100 μL cells+lipid:DNA complex was dispensed into a sterile, tissue-culture treated 96-well plate (20,000 cells/well), and incubated at least 16 hours to allow expression. The cells were incubated in a 37° C.+5% CO2 incubator for >16 hrs. A serially diluted inhibitor (i.e. ARCS) or test compound was prepared at 100× final concentration in 100% DMSO. The serially diluted inhibitor stock was prepared in PCR plates. 1 μL per well of 100× serially diluted inhibitor/test compound was added to the cells in 96-well plates that have been transiently transfected overnight and mixed by tapping the plate by hand. The plate was incubated at 37° C.+5% CO2 incubator overnight. A 1× solution of substrate mix (500× stock) and appropriate concentration of tracer was prepared in Opti-Mem. The cells were washed by setting a plate washer to the 96 well plate 5× in PBS pH 7.4 by adding 200 μL PBS each time. The cells were then incubated at 37° C. for 2 hours. 100 μL of the 1× Substrate-Tracer solution was added and the 96 well plate was gently tapped to mix. The plate on plate reader is read every hour for the next 6 hours."}
{"smiles": "C=CC(=O)N[C@H](C)C(=O)N1CCN(Cc2cc3c(N4CCOCC4)nc(-c4cnc(NC(=O)OC)cc4C(F)(F)F)nn3c2)CC1", "note": "[Compound 1-313]", "Binding (Percent inhibition)": "++++ (++++ >80%)"}
{"smiles": "COC(=O)Nc1cc(C(F)(F)F)c(-c2nc(N3CCOCC3)c3cc(CN4CCN(C(=O)CNC(=O)/C=C/CN5CCCCC5)CC4)cn3n2)cn1", "note": "[Compound 1-217]", "Binding (Percent inhibition)": "++ (++ 20-50%)"}
{"smiles": "C=CC(=O)N1CCC[C@@H]1C(=O)N1CCN(Cc2cc3c(N4CCOCC4)nc(-c4cnc(NC(=O)OC)cc4C(F)(F)F)nn3c2)CC1", "note": "[Compound 1-308]", "Binding (Percent inhibition)": "++++ (++++ >80%)"}
{"smiles": "COC(=O)Nc1cc(C(F)(F)F)c(-c2nc(N3CCOCC3)c3cc(CN4CCN(C(=O)CNC(=O)/C=C/CN5CCOCC5)CC4)cn3n2)cn1", "note": "[Compound 1-202]", "Binding (Percent inhibition)": "++++ (++++ >80%)"}
{"smiles": "C=CC(=O)N1CCC[C@H]1C(=O)N1CCN(Cc2cc3c(N4CCOCC4)nc(-c4cnc(NC(=O)OC)cc4C(F)(F)F)nn3c2)CC1", "note": "[Compound 1-309]", "Binding (Percent inhibition)": "++++ (++++ >80%)"}
{"smiles": "C=CC(=O)N(C)c1cccc(C(=O)N2CCN(Cc3cc4c(N5CCOCC5)nc(-c5cnc(NC(=O)OC)cc5C(F)(F)F)nn4c3)CC2)c1", "note": "[Compound 1-312]", "Binding (Percent inhibition)": "++ (++ 20-50%)"}
{"smiles": "COC(=O)Nc1cc(C(F)(F)F)c(-c2nc(N3CCOCC3)c3cc(CN4CCN(C(=O)CNC(C)=O)CC4)cn3n2)cn1", "note": "[Compound 1-214]", "Binding (Percent inhibition)": "++++ (++++ >80%)"}
{"smiles": "C=CC(=O)Nc1cccc(C(=O)N2CCN(Cc3cc4c(N5CCOCC5)nc(-c5cnc(NC(=O)OC)cc5C(F)(F)F)nn4c3)CC2)c1", "note": "[Compound 1-306]", "Binding (Percent inhibition)": "++ (++ 20-50%)"}
{"smiles": "C#CCCC(=O)Nc1ccc(-c2nc(N3CCOCC3)c3cc(CN4CCN(C(=O)CNC(=O)C=C)CC4)cn3n2)cc1", "note": "[Compound 1-215]", "Binding (Percent inhibition)": "+ (+ <20%)"}
{"smiles": "C=C(C)C(=O)NCC(=O)N1CCN(Cc2cc3c(N4CCOCC4)nc(-c4cnc(NC(=O)OC)cc4C(F)(F)F)nn3c2)CC1", "note": "[Compound 1-201]", "Binding (Percent inhibition)": "++++ (++++ >80%)"}
{"smiles": "C=C(OC)C(=O)NCC(=O)N1CCN(Cc2cc3c(N4CCOCC4)nc(-c4cnc(NC(=O)OC)cc4C(F)(F)F)nn3c2)CC1", "note": "[Compound 1-314]", "Binding (Percent inhibition)": "++++ (++++ >80%)"}
{"smiles": "C=CC(=O)NCC(=O)N1CC2(CN(Cc3cc4c(N5CCOCC5)nc(-c5cnc(NC(=O)OC)cc5C(F)(F)F)nn4c3)C2)C1", "note": "[Compound 1-223]", "Binding (Percent inhibition)": "++ (++ 20-50%)"}
{"smiles": "COC(=O)Nc1cc(C(F)(F)F)c(-c2nc(N3CCOCC3)c3cc(CN4CCN(C(=O)CNC(=O)/C=C/CN5CC6(COC6)C5)CC4)cn3n2)cn1", "note": "[Compound 1-213]", "Binding (Percent inhibition)": "+ (+ <20%)"}
{"smiles": "COC(=O)Nc1cc(C(F)(F)F)c(-c2nc(N3CCOCC3)c3cc(CN4CCN(C(=O)CNC(=O)/C=C/CF)CC4)cn3n2)cn1", "note": "[Compound 1-206]", "Binding (Percent inhibition)": "+ (+ <20%)"}
{"smiles": "C=CC(=O)N[C@@H](C)C(=O)N1CCN(Cc2cc3c(N4CCOCC4)nc(-c4cnc(NC(=O)OC)cc4C(F)(F)F)nn3c2)CC1", "note": "[Compound 1-315]", "Binding (Percent inhibition)": "++++ (++++ >80%)"}
{"smiles": "COC(=O)Nc1cc(C(F)(F)F)c(-c2nc(N3CCOCC3)c3cc(CN4CCN(C(=O)CNC(=O)/C=C/CN5CCN(C)CC5)CC4)cn3n2)cn1", "note": "[Compound 1-203]", "Binding (Percent inhibition)": "++ (++ 20-50%)"}
{"smiles": "C=C(F)C(=O)NCC(=O)N1CCN(Cc2cc3c(N4CCOCC4)nc(-c4cnc(NC(=O)OC)cc4C(F)(F)F)nn3c2)CC1", "note": "[Compound 1-212]", "Binding (Percent inhibition)": "++++ (++++ >80%)"}
{"smiles": "COC(=O)Nc1cc(C(F)(F)F)c(-c2nc(N3CCOCC3)c3cc(CN4CCN(C(=O)CNC(=O)/C=C/CN5CC(F)(F)C5)CC4)cn3n2)cn1", "note": "[Compound 1-204]", "Binding (Percent inhibition)": "++++ (++++ >80%)"}
{"smiles": "C=CC(=O)N1CCC(C(=O)N2CCN(Cc3cc4c(N5CCOCC5)nc(-c5cnc(NC(=O)OC)cc5C(F)(F)F)nn4c3)CC2)CC1", "note": "[Compound 1-304]", "Binding (Percent inhibition)": "++++ (++++ >80%)"}
